Results: patent publication US4137322A, “ML-236B carboxylic acid derivatives and their use as antihyperlipemic agents” (Sankyo Company Limited, priority 1976, dated 1979)
Where a name gives a salt, the structure may show the parent alone.

How the values were obtained:
Mouse = assay: Acute toxicity in mouse; details: aqueous suspension
Procedure: (§1) Acute toxicity of ML-236B carboxylic acid derivatives (I) was determined in oral and intraperitoneal administration (both as an aqueous suspension).

[1] = biological target: T1, 3-hydroxy-3-methylglutaryl-CoA reductase (Rattus norvegicus, UniProt P51639); assay: Inhibition of 3-hydroxy-3-methylglutaryl-CoA reductase; format: biochemical; details: enzyme: microsome of rat liver; read-out: Concentration to inhibit 50% of 3-hydroxy-3-methylglutaryl-CoA reductase (converted)
T1 construct: Employed as an enzyme microsome of rat liver; from tissue; host or cells: rat liver microsomes
T1 sequence (P51639 1-887): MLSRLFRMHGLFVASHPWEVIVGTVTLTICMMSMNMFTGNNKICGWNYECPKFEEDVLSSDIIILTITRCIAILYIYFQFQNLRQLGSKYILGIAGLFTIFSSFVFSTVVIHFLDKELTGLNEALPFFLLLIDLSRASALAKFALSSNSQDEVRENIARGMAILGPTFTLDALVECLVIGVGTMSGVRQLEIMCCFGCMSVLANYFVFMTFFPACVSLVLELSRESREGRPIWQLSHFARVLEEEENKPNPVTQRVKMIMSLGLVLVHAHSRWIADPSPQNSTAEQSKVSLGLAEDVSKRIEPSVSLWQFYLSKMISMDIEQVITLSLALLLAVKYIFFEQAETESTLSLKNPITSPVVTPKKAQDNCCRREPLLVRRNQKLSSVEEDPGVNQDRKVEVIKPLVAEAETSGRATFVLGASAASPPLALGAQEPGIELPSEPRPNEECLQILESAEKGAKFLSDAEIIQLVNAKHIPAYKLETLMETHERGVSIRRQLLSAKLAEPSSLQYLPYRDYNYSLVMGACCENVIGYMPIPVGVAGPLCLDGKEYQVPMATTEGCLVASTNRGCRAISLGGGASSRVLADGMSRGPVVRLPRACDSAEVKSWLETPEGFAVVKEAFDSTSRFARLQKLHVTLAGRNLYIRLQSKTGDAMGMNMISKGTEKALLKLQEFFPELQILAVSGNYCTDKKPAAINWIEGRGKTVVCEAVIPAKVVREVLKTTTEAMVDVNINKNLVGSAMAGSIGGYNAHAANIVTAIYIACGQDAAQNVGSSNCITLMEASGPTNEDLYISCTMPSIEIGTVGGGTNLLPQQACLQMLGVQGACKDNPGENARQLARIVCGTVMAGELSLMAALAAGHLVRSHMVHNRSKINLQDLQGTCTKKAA
Text: Inhibition activity of cholesterol biosynthesis [determined according to the method disclosed in J. Biol. Chem., 234, 2835 (1959)] and inhibition activity on 3-hydroxy-3-methylglutaryl-CoA reductase [determined according to the method disclosed in Anal. Biochem., 31, 383 (1969)] of these compounds are summarized in Table 1.
*Employed as an enzyme microsome of rat liver.

[2] = test system: total serum cholesterol in beagle dogs; assay: Lowering activity of blood cholesterol in beagle dogs; format: in vivo, beagle dog; details: beagle dogs, oral twice per day, 5 days
Text: The test was to orally administer an encapsulated test sample twice per day, in the morning (9 o'clock) and evening (16 o'clock), for continuous 5 days, collect a blood sample in the morning after 5 days and determine a total cholesterol level in serum by a conventional method.

Rat = assay: Acute toxicity in rat; details: aqueous suspension
Procedure: as §1

[3] = test system: serum cholesterol in rats; assay: Lowering activity of blood cholesterol in rats; format: in vivo, rat; details: rats, oral, after 18 hours
Procedure: A lowering activity of blood cholesterol in rats was assayed on rats. The test was to orally administer a test sample suspended in water, collect a blood sample after 18 hours and determine a cholesterol level in serum by a conventional method.

cholesterol biosynthesis = assay: Inhibition of cholesterol biosynthesis; format: biochemical
Acute toxicity in mouse = details: in vivo, ip, LD50, mouse, aqueous suspension
Procedure: as §1

Acute toxicity in rat = details: in vivo, ip, LD50, rat, aqueous suspension
Procedure: as §1

[4] = p.o., listed as ML-236B Na salt

Row | Structure (SMILES) | LD50 (Mouse; i.p.) [mg/kg] | LD50 (Mouse; p.o.) | IC50 [1] [nM] | Lowering rate of total serum cholesterol ([2]; 25 mg/kg/day) [%] | Lowering rate of total serum cholesterol ([2]; 100 mg/kg/day) [%] | LD50 (Rat; i.p.) [mg/kg] | LD50 (Rat; p.o.) | Lowering rate of serum cholesterol ([3]; 5 mg/kg, 5 mg/kg) [%] | Lowering rate of serum cholesterol ([3]; 20 mg/kg, 20 mg/kg) [%] | Concentration to inhibit 50% of cholesterol biosynthesis (cholesterol biosynthesis) [µg/mL] | LD50 (Acute toxicity in mouse) [mg/kg] | LD50 (Mouse; [4]) | inhibition in vivo at 25 mg/kg/day ([2]; Canis lupus familiaris, po, 120 h, 25 mg/kg/day, read-out: Lowering rate of total serum cholesterol) [%] | inhibition in vivo at 100 mg/kg/day ([2]; Canis lupus familiaris, po, 120 h, 100 mg/kg/day, read-out: Lowering rate of total serum cholesterol) [%] | LD50 (Acute toxicity in rat) [mg/kg] | LD50 (Rat; [4]) | inhibition in vivo at 5 mg/kg ([3]; Rattus norvegicus, po, 18 h, 5 mg/kg, read-out: Lowering rate of serum cholesterol) [%] | inhibition in vivo at 20 mg/kg ([3]; Rattus norvegicus, po, 18 h, 20 mg/kg, read-out: Lowering rate of serum cholesterol) [%] | LD50 (Mouse; p.o., listed as Ca salt) | LD50 (Rat; p.o., listed as Ca salt)
1 | CCC(C)C(=O)OC1CCC=C2C=CC(C)C(CCC(O)CC(O)CC(=O)O)C21 (centres unmarked) [Arginine, Arginine salt of ML-236B carboxylic acid] | > 500 | > 5,000 mg/kg | 441 | 26 | 45 | > 500 | > 5,000 mg/kg | 19.6 | 24.1 | 0.007 | – | – | – | – | – | – | – | – | – | –
2 | CCC(C)C(=O)OC1CCC=C2C=CC(C)C(CCC(O)CC(O)CC(=O)O)C21 (centres unmarked) [Na, Sodium ML-236B carboxylate] | – | – | 392 | – | – | – | – | – | – | 0.006 | > 500 | > 2,000 mg/kg | 24 | 47 | > 500 | > 2,000 mg/kg | 20.6 | 23.1 | – | –
3 | CCC(C)C(=O)OC1CCC=C2C=CC(C)C(CCC(O)CC(O)CC(=O)O)C21 (centres unmarked) [Ca, Calcium ML-236B carboxylate] | > 500 | – | – | 28 | 44 | > 500 | – | 16.5 | 20.9 | 0.006 | – | – | – | – | – | – | – | – | > 2,000 mg/kg | > 2,000 mg/kg
